Source: publication PMC7433010, “Exploration of multi‐target effects of 3‐benzoyl‐5‐hydroxychromen‐2‐one in Alzheimer’s disease cell and mouse models” (Aging Cell, 2020)

How the values were obtained:
Type in all cases: cell-based, human
[1] = tested on: ∆K280 TauRD‐DsRed‐expressing SH‐SY5Y cells; assay: Neurite outgrowth analysis in ∆K280 TauRD‐DsRed SH‐SY5Y cells; conditions: 1 µM
Procedure: On day 1, ∆K280 TauRD-DsRed-expressing SH-SY5Y cells were seeded on a 24-well plate in a density of 3 × 10^4 cells/well, with 10 µM retinoic acid (Sigma-Aldrich) added to induce neuronal differentiation. On the second day, the cells were treated with licochalcone A (1 µM), LM-031 (1 µM), or congo red (10 µM) for 8 h and ∆K280 TauRD-DsRed expression was induced as described. After seven days, the cells were washed with phosphate-buffered saline (PBS) and fixed in 4% paraformaldehyde in PBS for 15 min. After permeabilized with 0.1% Triton X-100 in PBS for 10 min and blocked by 3% BSA in PBS for 20 min, cells were stained with primary neuronal class III β-tubulin (TUBB3) antibody (1:1000; Covance, Princeton, NJ, USA) at 4°C overnight and secondary anti-rabbit Alexa Fluor ®555 antibody (1:1000; Invitrogen) at room temperature for 3 h. After nuclei were stained with DAPI for 30 min, neuronal images were captured using the high-content imaging system as described and analyzed using the Neurite Outgrowth Application Module (Molecular Devices).
(§1) To knock down CREB expression in ∆K280 TauRD-DsRed SH-SY5Y cells, lentiviral short hairpin RNA (shRNA) targeting CREB (TRCN0000226466), NRF2 (TRCN0000007558), and a negative control scrambled (TRC2.Void) were obtained from National RNAi Core Facility, IMB/GRC, Academia Sinica, Taipei, Taiwan. On day 1, cells were plated on 6-well plates (for protein analysis) or 24-well plates (for neurite outgrowth analysis) in the presence of retinoic acid as described. On the second day, the cells were infected with lentivirus (multiplicity of infection: 3) in medium with polybrene (8 µg/mL; Sigma-Aldrich). On day 3, the culture medium was changed and the cells were pretreated with LM-031 (1 µM) for 8 h, followed by induction of ∆K280 TauRD-DsRed expression. On day 9, the cells were collected for NRF2, CREB, pCREB, and cleaved CASP3 protein analysis or analyzed for neurite outgrowth as described.

ΔK280 TauRD‐DsRed = assay: Western blot of soluble ΔK280 TauRD‐DsRed in SH‐SY5Y cells; conditions: 1 µM, not significant
Procedure: as §1, with “On day 3, the culture medium was changed and the cells were pretreated with LM-031 (1 µM) for 8 h, followed by induction of ∆K280 TauRD-DsRed expression.” left out
Total proteins from ∆K280 TauRD-DsRed SH-SY5Y cells were obtained using a RIPA buffer containing 50 mM Tris-HCl (pH8.0), 150 mM NaCl, 2 mM EDTA (pH8.0), 50 mM NaF, 0.1% SDS, 0.5% sodium deoxycholate, 1% NP40, and a protease inhibitor cocktail (Sigma-Aldrich). […] Protein concentrations were determined using a protein assay kit (Bio-Rad, Hercules, CA, USA), with albumin as a standard. […] Subsequently, immune complexes were detected using a horseradish peroxidase-conjugated goat anti-mouse or goat anti-rabbit IgG antibody (1:5000; GeneTex, Irvive, CA, USA) and a chemiluminescent substrate (Millipore).

GADD45B = assay: Western blot of GADD45B in ∆K280 TauRD‐DsRed SH‐SY5Y cells; conditions: 1 µM; induced untreated 65%, uninduced 100%
Procedure: (§2) Total proteins from ∆K280 TauRD-DsRed SH-SY5Y cells were obtained using a RIPA buffer containing 50 mM Tris-HCl (pH8.0), 150 mM NaCl, 2 mM EDTA (pH8.0), 50 mM NaF, 0.1% SDS, 0.5% sodium deoxycholate, 1% NP40, and a protease inhibitor cocktail (Sigma-Aldrich). After sonication and sitting on ice for 20 min, the lysates were centrifuged at 14,000 × g for 30 min at 4°C. Protein concentrations were determined using a protein assay kit (Bio-Rad, Hercules, CA, USA), with albumin as a standard. Total proteins (20 µg) were electrophoresed on 10% or 12% SDS-polyacrylamide gel and transferred onto polyvinylidene difluoride (PVDF) membranes (Sigma-Aldrich) through reverse electrophoresis. […] Subsequently, immune complexes were detected using a horseradish peroxidase-conjugated goat anti-mouse or goat anti-rabbit IgG antibody (1:5000; GeneTex, Irvive, CA, USA) and a chemiluminescent substrate (Millipore).

pAKT (S473) = assay: Western blot of pAKT (S473) in ∆K280 TauRD‐DsRed SH‐SY5Y cells; conditions: induced untreated 84%, uninduced 100%
Procedure: as §2
Figure S4. ΔK280 TauRD-DsRed SH-SY5Y cells. […] On day 9, neurite outgrowth and caspase 3 activity were measured. In addition, expression of HSPB1, NRF2, and CREB pathways were assessed. (b) Relative AKT, pAKT, ERK, and pERK protein levels analyzed through immunoblotting. […]

**Q.** For O=C(c1ccccc1)c1cc2c(O)cccc2oc1=O [LM‐031, 3‐benzoyl‐5‐hydroxychromen‐2‐one], which neurite length ([1]; CREB‐specific shRNA‐infected cells, untreated 46 µm) is on record?
**A.** 51 µm

**Q.** And the neurite length ([1]; NRF2‐specific shRNA‐infected cells, untreated 42 µm)?
**A.** 46 µm

**Q.** What about the neurite length ([1]; scrambled shRNA‐infected cells, untreated 48 µm) of the same compound?
**A.** 53 µm

**Q.** And the “soluble TauRD‐DsRed protein level” value (ΔK280 TauRD‐DsRed; CREB‐specific shRNA‐infected cells, untreated 86%)?
**A.** 104%

**Q.** And the “soluble TauRD‐DsRed protein level” value (ΔK280 TauRD‐DsRed; NRF2‐specific shRNA‐infected cells, untreated 82%)?
**A.** 103%

**Q.** And the GADD45B protein level (GADD45B)?
**A.** 111%

**Q.** And the “pAKT (S473) expression level” value (pAKT (S473))?
**A.** 113%
